# From US11926611B1, “2-(2-ethoxyethoxy)-6-phenyl-4,4′-bipyridine-3-carbonitrile as an antimicrobial compound” (KING FAISAL UNIVERSITY, priority 2023, dated 2024)
# What was measured:
# [1] = tested on: Escherichia coli; assay: Antimicrobial screening by agar dilution, Escherichia coli; format: cell-based; details: after 10, 20, 40 and 60 minutes at all dilutions 1:100, 1:200, 1:400, 1:800
# Procedure: (§1) The antibacterial properties of the synthesized compound 2-(2-ethoxyethoxy)-6-phenyl-4,4′-bipyridine-3-carbonitrile were studied by the method of agar dilution. Test solutions of each compound was prepared in concentration of 1% using dimethylformamide as a solvent then they are diluted in physiological solution to obtain the final experimental dilutions 1:100, 1:200, 1:400, 1:800. The effect of these substances are compared with furacillin in a controllable study. The testing microbes used were gram positive bacteria Staphylococcus aureus, gram negative bacteria Pseudomonas aeruginosa and Escherichia coli and Candida albicans fungus. The experiments used for this survey were meat-pentonlu agar (EPA) for cultivation of bacteria and Saburo environment for the fungus. Each experiment used 1 mL of test solution on each plate […]. Two drops of emulsified with microbes feel were added. All experimental samples were taken from the agar after 10, 20, 40, 60 minutes in the environment on the basis of Patrk planted. The bacteria were cultivated at a temperature of 37° C. for 1 day and the mushroom was kept in a thermostat for […] at a temperature of 28° C. Then results were checked.
# [2] = tested on: Pseudomonas aeruginosa; assay: Antimicrobial screening by agar dilution, Pseudomonas aeruginosa; format: cell-based; details: after 10, 20, 40 and 60 minutes at all dilutions 1:100, 1:200, 1:400, 1:800
# Procedure: as §1
# [3] = tested on: Staphylococcus aureus; assay: Antimicrobial screening by agar dilution, Staphylococcus aureus; format: cell-based; details: after 10, 20, 40 and 60 minutes at all dilutions 1:100, 1:200, 1:400, 1:800
# Procedure: as §1
# [4] = tested on: Candida albicans; assay: Antimicrobial screening by agar dilution, Candida albicans; format: cell-based; details: after 10, 20, 40 and 60 minutes at all dilutions 1:100, 1:200, 1:400, 1:800
# Procedure: as §1
smiles,measurement,setting,value
"CCOCCOc1nc(-c2ccccc2)cc(-c2ccncc2)c1C#N [2-(2-ethoxyethoxy)-6-phenyl-4,4′-bipyridine-3-carbonitrile]",inhibition activity (in words),[1],highest inhibition activity
same,inhibition activity (in words),[2],highest inhibition activity
same,melting point,,241 to 243 °C
same,inhibition activity (in words),[3],highest inhibition activity
same,inhibition activity (in words),[4],highest inhibition activity
